According to patent publication US6187907A, “Triple helix coil template having a biologically active ligand” (priority 1998, dated 2001):
Bridge positions count the residues as written; N and C are the ends. Square brackets hold non-standard residues; d marks the D form. Peptide text beside a SMILES is read from it. I, II: the chains in the order shown. * marks the point of attachment. Succinyl(2R-iBu,4-NHOH) = CC(C)C[C@H](CC(=O)NO)C(=O)*; Hyp = O=C(O)[C@@H]1C[C@@H](O)CN1; Ahx = NCCCCCC(=O)O

Target: Human gelatinase
Experiment: Inhibition of trypsin-activated human gelatinase, fluorogenic Mca peptide substrate
Format: biochemical
Conditions: substrate 10 μM, 37° C., 60 minutes, 5 minutes preincubation; read-out: IC50 against activated gelatinase
Description: Human gelatinase was activated with trypsin as follows. A reaction mixture was prepared in Tris buffer (pH 7.5) containing 20 mM Tris-HCl, 0.15 N NaCl, 4 μg/ml trypsin, 3 nM gelatinase and 5 mM CaCl2. The reaction mixture was incubated at 37° C. for 60 minutes and then soybean trypsin inhibitor was added at 44 μg/ml to quench the reaction.
The substrate was added at final 10 μM and was then further incubated at 37° C. for 60 minutes. The reaction was terminated by the addition of 750 μl of 0.1 N sodium acetate buffer (pH 4.0). The hydrolysis of the substrate was assessed by fluorescence, excitation at 328 nm and emission of 393 nm, with a Perkin-Elmer Fluorimeter LS-50B.

| Compound | IC50 [nM] |
| --- | --- |
| CC(C)C[C@H](CC(=O)NO)C(=O)N[C@@H](Cc1c[nH]c2ccccc12)C(=O)NCC(=O)N1CCC[C@H]1C(=O)N1C[C@H](O)C[C@H]1C(=O)NCC(=O)N1CCC[C@H]1C(=O)N1CCC[C@H]1C(=O)N[C@@H](CO)C(=O)NCC(=O)NCC(=O)NCCCCCC(=O)NCCCC[C@H](NC(=O)CCCCCNC(=O)CNC(=O)CNC(=O)[C@H](CO)NC(=O)[C@@H]1CCCN1C(=O)[C@@H]1CCCN1C(=O)CNC(=O)[C@@H]1C[C@@H](O)CN1C(=O)[C@@H]1CCCN1C(=O)CNC(=O)[C@H](Cc1c[nH]c2ccccc12)NC(=O)[C@@H](CC(=O)NO)CC(C)C)C(=O)N[C@@H](CCCCNC(=O)CCCCCNC(=O)CNC(=O)CNC(=O)[C@H](CO)NC(=O)[C@@H]1CCCN1C(=O)[C@@H]1CCCN1C(=O)CNC(=O)[C@@H]1C[C@@H](O)CN1C(=O)[C@@H]1CCCN1C(=O)CNC(=O)[C@H](Cc1c[nH]c2ccccc12)NC(=O)[C@@H](CC(=O)NO)CC(C)C)C(=O)NCC(N)=O [NHT1-L] (I: {Succinyl(2R-iBu,4-NHOH)}-WGP[Hyp]GPPSGG[Ahx]KKG-NH2 / II: {Succinyl(2R-iBu,4-NHOH)}-WGP[Hyp]GPPSGG[Ahx] / III: {Succinyl(2R-iBu,4-NHOH)}-WGP[Hyp]GPPSGG[Ahx]; amide I:12-II:C, I:13-III:C) | 2.3 |
| I: {Succinyl(2R-iBu,4-NHOH)}-WGP[Hyp]GP[Hyp]GPPSGG[Ahx]KKG-NH2 / II: {Succinyl(2R-iBu,4-NHOH)}-WGP[Hyp]GP[Hyp]GPPSGG[Ahx] / III: {Succinyl(2R-iBu,4-NHOH)}-WGP[Hyp]GP[Hyp]GPPSGG[Ahx] (amide I:15-II:C, I:16-III:C) [NHT2-L] | 24 |
